Assay results from patent publication EP4624466A1, “DEGRADER FOR DECOMPOSING CMET PROTEIN, AND PHARMACEUTICAL COMPOSITION COMPRISING SAME” (Innocure Therapeutics, Inc., priority 2022, dated 2024).
Read-outs that look alike come from different tables or passages of the source.

How the values were obtained:
c-MET [1] = biological target: T1, c-MET (Homo sapiens, UniProt P08581); experiment: c-MET protein degradation (Simple Western), MKN-45; assay type: cell-based; set-up: assess the resolution of the compound of the present invention for c-MET expressed in cells; endogenous in cells; host or cells: MKN45 (human gastric cancer); details: c-MET overexpressing gastric cancer cell line MKN-45, treated 24 hours; Table 2
T1 sequence (P08581 25-1390): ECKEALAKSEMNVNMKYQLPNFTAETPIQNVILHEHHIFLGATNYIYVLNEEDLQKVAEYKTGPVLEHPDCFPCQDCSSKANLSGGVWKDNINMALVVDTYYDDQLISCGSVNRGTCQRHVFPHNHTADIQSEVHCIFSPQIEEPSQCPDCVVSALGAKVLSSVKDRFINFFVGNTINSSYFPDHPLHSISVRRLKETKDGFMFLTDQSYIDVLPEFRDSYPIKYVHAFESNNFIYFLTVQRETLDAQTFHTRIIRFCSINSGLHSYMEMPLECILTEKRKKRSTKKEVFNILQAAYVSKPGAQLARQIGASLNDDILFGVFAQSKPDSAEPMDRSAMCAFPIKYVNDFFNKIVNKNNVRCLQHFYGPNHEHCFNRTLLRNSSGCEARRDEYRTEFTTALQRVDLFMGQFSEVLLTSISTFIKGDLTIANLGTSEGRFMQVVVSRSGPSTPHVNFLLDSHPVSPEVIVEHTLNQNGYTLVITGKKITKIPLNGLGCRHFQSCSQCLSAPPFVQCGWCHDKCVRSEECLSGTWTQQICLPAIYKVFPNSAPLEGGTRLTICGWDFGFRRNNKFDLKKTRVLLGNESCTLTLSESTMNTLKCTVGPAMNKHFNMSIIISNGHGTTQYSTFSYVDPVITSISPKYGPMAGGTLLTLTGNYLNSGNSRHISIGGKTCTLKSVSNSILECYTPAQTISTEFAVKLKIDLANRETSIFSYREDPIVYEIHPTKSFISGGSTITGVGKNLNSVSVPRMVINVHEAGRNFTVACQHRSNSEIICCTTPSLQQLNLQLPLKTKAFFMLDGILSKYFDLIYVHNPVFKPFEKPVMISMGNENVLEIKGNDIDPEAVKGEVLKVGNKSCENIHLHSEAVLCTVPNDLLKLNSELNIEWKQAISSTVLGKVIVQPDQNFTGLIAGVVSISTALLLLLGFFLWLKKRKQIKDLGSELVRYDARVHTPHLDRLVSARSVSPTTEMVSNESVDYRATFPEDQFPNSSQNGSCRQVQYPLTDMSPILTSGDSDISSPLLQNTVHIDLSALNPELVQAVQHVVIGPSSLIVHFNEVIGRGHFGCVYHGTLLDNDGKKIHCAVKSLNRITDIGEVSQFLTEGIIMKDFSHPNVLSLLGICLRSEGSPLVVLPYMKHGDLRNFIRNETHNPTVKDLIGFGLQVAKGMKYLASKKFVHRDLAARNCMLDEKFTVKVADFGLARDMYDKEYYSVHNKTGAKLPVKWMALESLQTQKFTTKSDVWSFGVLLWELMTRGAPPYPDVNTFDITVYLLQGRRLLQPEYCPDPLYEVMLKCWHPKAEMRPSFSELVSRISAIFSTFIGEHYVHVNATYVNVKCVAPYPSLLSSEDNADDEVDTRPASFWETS
Method in brief: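 Cells treated 24 h (gastric lines) or 48 h (lung lines); 3 µg lysate protein analysed by capillary Simple Western with anti-c-MET, normalized to GAPDH and expressed as % of 0.1% DMSO; DC50 from expression change.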

EBC-1 = experiment: Cell viability / antiproliferative assay (WST-8), EBC-1; assay type: cell-based, human; details: read-out: EBC-1 IC50
Description: (§2) c-MET overexpressing human gastric cancer cell lines [MKN45] and [SNU638] were cultured in RPMI medium with 10% fetal bovine serum, penicillin (100U/ml), and streptomycin (100mg/ml), and c-MET exon 14 skipping mutant human gastric cancer cell lines [Hs746T] were cultured in DMEM media. The c-MET overexpressing human lung cancer cell line EBC-1 was cultured in MEM media with the addition of 10% fetal bovine serum, penicillin (100U/ml), and streptomycin (100mg/ml). […] The compound synthesized in accordance with the present invention was prepared with a raw material solution of 10 mM dissolved in DMSO (dimethyl sulfoxide), and was sequentially diluted and processed.
(§3) In order to observe the inhibitory activity on cell growth, cells were dispensed in a 96-well plate at a concentration of 5,000 cells/well, and then treated with the compound prepared at various concentrations for 72 hours. The viability of the cells was calculated using GraphicPad Prism 8.0 software by adding 10 ml per well of WST-8 (water soluble tetrazolium salt) sample, which reacts with dehydrogenase present in the electron transport system of mitochondria to produce formazon, incubated for 2 hours, and measured absorbance at 450 nm.

c-MET [2] = biological target: T2, c-MET (Homo sapiens, UniProt P08581, DEL963-1009); experiment: c-MET protein degradation (Simple Western), Hs746T; assay type: cell-based; details: c-MET exon 14 skipping mutant gastric cancer cell line Hs746T, treated 24 hours; Table 2
T2 construct: assess the resolution of the compound of the present invention for c-MET expressed in cells; endogenous in cells; host or cells: Hs746T (human gastric cancer)
T2 sequence (P08581 with tags, fused parts or gaps DEL963-1009): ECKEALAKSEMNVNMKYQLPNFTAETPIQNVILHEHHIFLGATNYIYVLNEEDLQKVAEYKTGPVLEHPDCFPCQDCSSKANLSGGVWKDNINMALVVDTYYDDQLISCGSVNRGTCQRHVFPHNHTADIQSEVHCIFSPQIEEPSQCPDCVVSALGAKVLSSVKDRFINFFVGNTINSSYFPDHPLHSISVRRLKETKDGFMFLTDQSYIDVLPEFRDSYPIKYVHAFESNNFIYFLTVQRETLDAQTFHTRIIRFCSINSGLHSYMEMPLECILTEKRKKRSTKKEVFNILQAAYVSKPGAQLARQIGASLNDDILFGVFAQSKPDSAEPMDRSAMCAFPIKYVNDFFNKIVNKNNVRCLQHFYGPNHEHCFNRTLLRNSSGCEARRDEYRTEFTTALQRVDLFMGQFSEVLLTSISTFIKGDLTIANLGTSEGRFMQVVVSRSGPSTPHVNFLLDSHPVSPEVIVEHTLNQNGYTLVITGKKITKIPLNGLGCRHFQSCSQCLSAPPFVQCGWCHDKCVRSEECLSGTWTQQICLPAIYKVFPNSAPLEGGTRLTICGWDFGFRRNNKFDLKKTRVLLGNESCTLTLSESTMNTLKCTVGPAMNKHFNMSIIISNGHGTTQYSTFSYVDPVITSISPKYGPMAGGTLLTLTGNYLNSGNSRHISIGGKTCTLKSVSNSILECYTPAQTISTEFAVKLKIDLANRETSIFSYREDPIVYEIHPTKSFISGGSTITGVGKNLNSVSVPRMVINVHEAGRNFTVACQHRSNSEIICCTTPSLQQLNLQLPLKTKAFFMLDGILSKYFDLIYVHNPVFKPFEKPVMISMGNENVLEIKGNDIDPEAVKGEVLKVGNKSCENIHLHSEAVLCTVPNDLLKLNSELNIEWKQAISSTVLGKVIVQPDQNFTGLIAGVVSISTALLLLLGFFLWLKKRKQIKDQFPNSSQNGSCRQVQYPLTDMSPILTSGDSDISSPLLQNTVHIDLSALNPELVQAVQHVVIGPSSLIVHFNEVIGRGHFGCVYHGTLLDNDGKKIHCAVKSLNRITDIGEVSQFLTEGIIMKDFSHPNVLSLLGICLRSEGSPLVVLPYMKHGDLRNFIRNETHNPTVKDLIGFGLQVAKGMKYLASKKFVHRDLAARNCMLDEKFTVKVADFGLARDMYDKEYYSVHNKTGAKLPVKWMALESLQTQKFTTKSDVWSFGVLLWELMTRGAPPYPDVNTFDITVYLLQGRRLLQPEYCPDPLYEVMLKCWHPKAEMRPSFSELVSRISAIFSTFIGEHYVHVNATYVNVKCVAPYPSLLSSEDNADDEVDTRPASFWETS
T2 sequence (P08581 25-307 partner limits assumed): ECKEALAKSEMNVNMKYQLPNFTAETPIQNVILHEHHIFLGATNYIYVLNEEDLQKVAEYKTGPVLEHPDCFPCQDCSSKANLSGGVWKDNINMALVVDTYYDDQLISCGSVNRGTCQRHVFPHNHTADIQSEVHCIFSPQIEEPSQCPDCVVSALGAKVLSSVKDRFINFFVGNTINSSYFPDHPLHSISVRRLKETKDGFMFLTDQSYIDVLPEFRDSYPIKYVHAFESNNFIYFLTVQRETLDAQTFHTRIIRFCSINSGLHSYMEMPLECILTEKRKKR
Description: (§1) In order to assess the resolution of the compound of the present invention for c-MET expressed in cells, cells were dispensed in a 12-well plate at a concentration of 2 × 10^5 cells/well, and then gastric cancer cell lines were treated with samples for 24 hours and lung cancer cell lines were treated for 48 hours. Cell lysates were collected using a scraper on ice, centrifuged at 4°C15,000 rpm for 30 min to obtain a protein-containing supernatant. Protein expression was then measured using the Simple Western Automated Western Blot System Abby instrument using 3 µg of protein for each sample. SDS and heat-induced denaturation proteins were separated by molecular weight, attached to capillary, reacted with anti-c-MET or anti-GAPDH antibodies, which are primary antibodies, and then reacted with HRP-conjugated secondary antibodies, and analyzed the protein expression signal with compass software. Protein expression was normalized based on the expression value of GAPDH, and protein development in each sample was measured as a percentage (%) based on 100% of samples treated with 0.1% DMSO carriers, and DC50 (concentration of a compound where 50% protein inhibition is achieved) was calculated from the change in protein expression amount due to compound treatment.

SNU-638 = experiment: Cell viability / antiproliferative assay (WST-8), SNU-638; assay type: cell-based, human; details: read-out: SNU-638 IC50
Description: as §2, §3

c-MET [3] = biological target: T1, c-MET; experiment: c-MET protein degradation (Simple Western), SNU-638; assay type: cell-based; set-up: assess the resolution of the compound of the present invention for c-MET expressed in cells; endogenous in cells; host or cells: SNU638 (human gastric cancer); details: c-MET overexpressing gastric cancer cell line SNU-638, treated 24 hours; Table 2
Description: as §1

Hs746T = experiment: Cell viability / antiproliferative assay (WST-8), Hs746T; assay type: cell-based; details: Homo sapiens, Hs746T cells, 72 hours, Table 2
Description: as §2, §3

MKN-45 = experiment: Cell viability / antiproliferative assay (WST-8), MKN-45; details: Homo sapiens, MKN-45, 72 h, read-out: MKN-45 IC50;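 also: MKN-45 is a human gastric cancer line overexpressing c-MET, growth inhibition read as WST-8 formazan absorbance at 450 nm after 2 h dye incubation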
c-MET [4] = biological target: T1, c-MET; experiment: c-MET protein degradation (Simple Western), EBC-1; assay type: cell-based; set-up: assess the resolution of the compound of the present invention for c-MET expressed in cells; endogenous in cells; host or cells: EBC-1 (human lung cancer); details: c-MET overexpressing lung cancer cell line EBC-1, treated 48 hours; Table 2
Description: as §1

[5] = Homo sapiens, EBC-1 cells, 72 hours, WST-8, Table 2
[6] = Homo sapiens, SNU-638 cells, 72 hours, WST-8, Table 2

For `Cc1nn(C2CCC(=O)NC2=O)c(=O)c2ccc(N3CCN(CCN4CCC(COc5cnc(-c6cccc(Cn7nc(-c8cccc(C#N)c8)ccc7=O)c6)nc5)CC4)CC3)cc12` (stereo not shown) [ICT-0001277, 3-(1-{[3-(5-{[1-(2-{4-[2-(2,6-dioxopiperidin-3-yl)-4-methyl-1-oxo-1,2-dihydrophthalazine-6-yl]piperazine-1-yl}ethyl)piperidine-4-il]methoxy}pyrimidine-2-yl)phenyl]methyl}6-oxo-1,6-dihydropyridazine-3-yl)benzonitrile], the DC50 (c-MET [1]) was under 100 nM, the IC50 (EBC-1; Homo sapiens, EBC-1, 72 h) was under 100 nM and the DC50 (c-MET [2]) was under 100 nM. The IC50 (SNU-638; Homo sapiens, SNU-638, 72 h) was under 100 nM, the DC50 (c-MET [3]) was under 100 nM and the IC50 (Hs746T) was under 100 nM. It also gave an IC50 (MKN-45) of under 100 nM and a DC50 (c-MET [4]) of under 100 nM.

Compound `N#Cc1cccc(-c2ccc(=O)n(Cc3cccc(-c4ncc(N5CCN(CC6CCN(c7ccc(NC8CCC(=O)NC8=O)cc7F)CC6)CC5)cn4)c3)n2)c1` (stereo not shown) [ICT-0001402] has an IC50 (EBC-1; Homo sapiens, EBC-1, 72 h) of under 100 nM, a DC50 (c-MET [2]) of under 100 nM and an IC50 (SNU-638; Homo sapiens, SNU-638, 72 h) of under 100 nM. It also gave a DC50 (c-MET [3]) of under 100 nM, an IC50 (Hs746T) of under 100 nM and a DC50 (c-MET [4]) of under 100 nM.

`Cc1nn(C2CCC(=O)NC2=O)c(=O)c2ccc(N3CCN(c4ccc(NC(=O)CN5CCC(COc6cnc(-c7cccc(Cn8nc(-c9cccc(C#N)c9)ccc8=O)c7)nc6)CC5)cc4)CC3)cc12` (stereo not shown) [ICT-0001207] was tested, and the DC50 (c-MET [1]) was under 100 nM, the IC50 (EBC-1; Homo sapiens, EBC-1, 72 h) was under 100 nM and the DC50 (c-MET [2]) was under 100 nM. For the same compound, the IC50 (SNU-638; Homo sapiens, SNU-638, 72 h) was under 100 nM, the DC50 (c-MET [3]) was under 100 nM and the IC50 (Hs746T) was 100 to 1000 nM. For the same compound, the IC50 (MKN-45) was under 100 nM and the DC50 (c-MET [4]) was under 100 nM.

For `N#Cc1cccc(-c2ccc(=O)n(Cc3cccc(-c4ncc(OCC5CCN(CCC(=O)N6CCN(c7ccc8c(=O)n(C9CCC(=O)NC9=O)ncc8c7)CC6)CC5)cn4)c3)n2)c1` (stereo not shown) [ICT-0001223], the DC50 (c-MET [1]) was under 100 nM, the IC50 (Hs746T) was under 100 nM and the IC50 (MKN-45) was under 100 nM.

`Cc1nn(C2CCC(=O)NC2=O)c(=O)c2ccc(N3CCN(C(=O)CCN4CCC(COc5cnc(-c6cccc(Cn7nc(-c8cccc(C#N)c8)ccc7=O)c6)nc5)CC4)CC3)cc12` (stereo not shown) [ICT-0001224] showed a DC50 (c-MET [1]) of under 100 nM, an IC50 (Hs746T) of under 100 nM and an IC50 (MKN-45) of under 100 nM.

`N#Cc1cccc(-c2ccc(=O)n(Cc3cccc(-c4ncc(OCC5CCN(CCN6CCN(c7ccc(NC8CCC(=O)NC8=O)cc7F)CC6)CC5)cn4)c3)n2)c1` (stereo not shown) [ICT-0001433, 3-(1-(3-(5-((1-(1-(2-(4-((2,6-dioxopiperidine-3-yl)amino)-2-fluorophenyl)piperazine-1-il)ethyl)piperidine-4-il)methoxy)pyrimidine-2-yl)benzyl)6-oxo-1,6-dihydropyridazine-3-yl)benzonitrile] was tested, and the IC50 (EBC-1; Homo sapiens, EBC-1, 72 h) was under 100 nM, the IC50 (SNU-638; Homo sapiens, SNU-638, 72 h) was under 100 nM and the DC50 (c-MET [3]) was under 100 nM. It also gave a DC50 (c-MET [4]) of under 100 nM.

`N#Cc1cccc(-c2ccc(=O)n(Cc3cccc(-c4ncc(OCC5CCN(CC6CN(c7ccc(NC8CCC(=O)NC8=O)cc7F)C6)CC5)cn4)c3)n2)c1` (stereo not shown) [ICT-0001425] showed an IC50 (EBC-1; EBC-1 cells, 72 hours, WST-8, Table 2) of under 100 nM, an IC50 (SNU-638; SNU-638 cells, 72 hours, WST-8, Table 2) of under 100 nM and a DC50 (c-MET [3]) of under 100 nM. It also gave a DC50 (c-MET [4]) of under 100 nM.

`N#Cc1cccc(-c2ccc(=O)n(Cc3cccc(-c4ncc(OCC5CCN(CC(=O)NCCCC#Cc6ccc7c(=O)n(C8CCC(=O)NC8=O)ncc7c6)CC5)cn4)c3)n2)c1` (stereo not shown) [ICT-0001205] showed a DC50 (c-MET [1]) of under 100 nM, an IC50 (Hs746T) of 100 to 1000 nM and an IC50 (MKN-45) of under 100 nM.

For `Cc1nn(C2CCC(=O)NC2=O)c(=O)c2ccc(N3CCN(C(=O)CCCN4CCC(COc5cnc(-c6cccc(Cn7nc(-c8cccc(C#N)c8)ccc7=O)c6)nc5)CC4)CC3)cc12` (stereo not shown) [ICT-0001227, 3-(1-(3-(5-((1-(4-(4-(2-(2,6-dioxopiperidin-3-yl)-4-methyl-1-oxo-1,2-dihydropetalazine-6-yl)piperazine-1-yl)4-oxobutyl)piperidine-4-yl)methoxy)pyrimidine-2-yl)benzyl)6-oxo-1,6-dihydropyridazine-3-yl)benzonitrile], the IC50 (Hs746T) was under 100 nM and the IC50 (MKN-45) was under 100 nM.

In the case of `N#Cc1cccc(-c2ccc(=O)n(Cc3cccc(-c4ncc(OCC5CCN(CC(=O)N6CCN(CC7CCN(c8ccc(NC9CCC(=O)NC9=O)cc8F)CC7)CC6)CC5)cn4)c3)n2)c1` (stereo not shown) [ICT-0001468, 3-(1-{[3-(5-{[1-(2-{4-[(1-{4-[(2,6-dioxopiperidin-3-yl)amino]-2-fluorophenyl}piperidine-4-yl)methyl]piperazine-1-yl}-2-oxoethyl)piperidine-4-yl]methoxy}pyrimidine-2-yl)phenyl]methyl}-6-oxo-1,6-dihydropyridazine-3-yl)benzonitrile], the IC50 (EBC-1; [5]) is reported as under 100 nM, the IC50 (SNU-638; [6]) is reported as under 100 nM and the DC50 (c-MET [3]) is reported as 100 to 1000 nM. The DC50 (c-MET [4]) was under 100 nM.

Work on `N#Cc1cccc(-c2ccc(=O)n(Cc3cccc(-c4ncc(OCC5CCN(CCCC(=O)N6CCN(c7ccc8c(=O)n(C9CCC(=O)NC9=O)ncc8c7)CC6)CC5)cn4)c3)n2)c1` (stereo not shown) [ICT-0001226] yielded an IC50 (Hs746T) of under 100 nM and an IC50 (MKN-45) of under 100 nM.

Compound `Cc1nn(C2CCC(=O)NC2=O)c(=O)c2cc(F)c(N3CCN(CC4CCN(C(=O)CN5CCC(COc6cnc(-c7cccc(Cn8nc(-c9cccc(C#N)c9)ccc8=O)c7)nc6)CC5)CC4)CC3)cc12` (stereo not shown) [ICT-0001204] has a DC50 (c-MET [1]) of under 100 nM, an IC50 (EBC-1; Homo sapiens, EBC-1, 72 h) of under 100 nM and an IC50 (Hs746T) of 100 to 1000 nM. It also gave an IC50 (MKN-45) of under 100 nM.

`Cc1nn(C2CCC(=O)NC2=O)c(=O)c2cc(N3CCN(C(=O)CCCN4CCC(COc5cnc(-c6cccc(Cn7nc(-c8cccc(C#N)c8)ccc7=O)c6)nc5)CC4)CC3)ccc12` (stereo not shown) [ICT-0001228] was tested, and the DC50 (c-MET [1]) was under 100 nM and the IC50 (Hs746T) was 100 to 1000 nM.

With `N#Cc1cccc(-c2ccc(=O)n(Cc3cccc(-c4ncc(-c5cccc(CN6CCN(c7ccc(NC8CCC(=O)NC8=O)cc7F)CC6)c5)cn4)c3)n2)c1` (stereo not shown) [ICT-0001434] the IC50 (EBC-1; Homo sapiens, EBC-1, 72 h) was under 100 nM, the IC50 (SNU-638; Homo sapiens, SNU-638, 72 h) was under 100 nM and the DC50 (c-MET [3]) was over 1000 nM. It also gave a DC50 (c-MET [4]) of under 100 nM.

In the case of `N#Cc1cccc(-c2ccc(=O)n(Cc3cccc(-c4ncc(OCC5CCN(CC(=O)N6CCC(CN7CCN(c8ccc(NC9CCC(=O)NC9=O)cc8F)CC7)CC6)CC5)cn4)c3)n2)c1` (stereo not shown) [ICT-0001447, 3-(1-{[3-(5-{[1-(2-{4-[(4-{4-[(2,6-dioxopiperidin-3-yl)amino]-2-fluorophenyl}piperazine-1-yl)methyl]piperidine-1-yl}-2-oxoethyl)piperidine-4-yl]methoxy}pyrimidine-2-yl)phenyl]methyl}-6-oxo-1,6-dihydropyridazine-3-yl)benzonitrile], the IC50 (EBC-1; [5]) is reported as under 100 nM, the IC50 (SNU-638; [6]) is reported as under 100 nM and the DC50 (c-MET [3]) is reported as 100 to 1000 nM. The DC50 (c-MET [4]) was under 100 nM.

In the case of `Cc1nn(C2CCC(=O)NC2=O)c(=O)c2cc(N3CCN(C(=O)CCN4CCC(COc5cnc(-c6cccc(Cn7nc(-c8cccc(C#N)c8)ccc7=O)c6)nc5)CC4)CC3)ccc12` (stereo not shown) [ICT-0001.225], the DC50 (c-MET [1]) is reported as under 100 nM, the IC50 (Hs746T) is reported as under 100 nM and the IC50 (MKN-45) is reported as under 100 nM.

Work on `N#Cc1cccc(-c2ccc(=O)n(Cc3cccc(-c4ncc(OCC5CCN(C(=O)CN6CCN(c7ccc(NC8CCC(=O)NC8=O)cc7F)CC6)CC5)cn4)c3)n2)c1` (stereo not shown) [ICT-0001494] yielded an IC50 (EBC-1; Homo sapiens, EBC-1, 72 h) of under 100 nM, an IC50 (SNU-638; Homo sapiens, SNU-638, 72 h) of under 100 nM and a DC50 (c-MET [3]) of under 100 nM. For the same compound, the DC50 (c-MET [4]) was under 100 nM.

For `Cc1nn(C2CCC(=O)NC2=O)c(=O)c2ccc(N3CCN(C(=O)CCCCN4CCC(COc5cnc(-c6cccc(Cn7nc(-c8cccc(C#N)c8)ccc7=O)c6)nc5)CC4)CC3)cc12` (stereo not shown) [ICT-0001250], the IC50 (Hs746T) was under 100 nM and the IC50 (MKN-45) was under 100 nM.
